Assay results from PubChem BioAssay AID270 (DTP/NCI, 2004).
Inconclusive results are not listed.

Tested on: BDF1 mice, s.c. Lewis lung carcinoma, T/C %
Assay: NCI In Vivo Anticancer Drug Screen. Data for tumor model Lewis Lung Carcinoma (subcutaneous) in B6D2F1 (BDF1) mice
Summary of the method: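 Tumor-bearing mice were treated with test compound, and either survival or tumor size was recorded. Values are the treated-group measurement divided by that of the vehicle-treated control group.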

[1] = endpoint: mean tumor weight, dose: 25.0 mg/kg/injection, schedule: Q01DX011 (ip), vehicle: saline, higher = larger tumour
[2] = endpoint: mean tumor weight, dose: 50.0 mg/kg/injection, schedule: Q01DX011 (ip), vehicle: saline, higher = larger tumour

C1CCNC1
T/C (endpoint: mean tumor weight, dose: 1.56 mg/kg/injection, schedule: Q01DX011 (ip), vehicle: saline, higher = larger tumour): 65 % of control | T/C (endpoint: mean tumor weight, dose: 3.13 mg/kg/injection, schedule: Q01DX011 (ip), vehicle: saline, higher = larger tumour): 87 % of control | T/C (endpoint: mean tumor weight, dose: 6.25 mg/kg/injection, schedule: Q01DX011 (ip), vehicle: saline, higher = larger tumour): 117 % of control | T/C [1]: 73 % of control | T/C [2]: 67 % of control

O=c1c(O)c(-c2ccc(O)c(O)c2)oc2cc(O)cc(O)c12
T/C (endpoint: mean tumor weight, dose: 12.5 mg/kg/injection, schedule: Q01DX011 (ip), vehicle: saline, higher = larger tumour): 86 % of control | T/C [1]: 71 % of control | T/C [2]: 61 % of control | T/C (endpoint: mean tumor weight, dose: 100.0 mg/kg/injection, schedule: Q01DX011 (ip), vehicle: saline, higher = larger tumour): 100 % of control

CC1OC(=O)C(C(C)C)NC(=O)C(C(C)C)OC(=O)C(C(C)C)NC(=O)C(C)OC(=O)C(C(C)C)NC(=O)C(C(C)C)OC(=O)C(C(C)C)NC(=O)C(C)OC(=O)C(C(C)C)NC(=O)C(C(C)C)OC(=O)C(C(C)C)NC1=O (configuration not stated)
T/C (endpoint: median survival time, dose: 0.31 mg/kg/injection, schedule: Q01DX009 (ip), vehicle: saline with Tween-80, higher = longer survival): 100 % of control | T/C (endpoint: median survival time, dose: 0.62 mg/kg/injection, schedule: Q01DX009 (ip), vehicle: saline with Tween-80, higher = longer survival): 103 % of control | T/C (endpoint: median survival time, dose: 0.75 mg/kg/injection, schedule: Q01DX009 (ip), vehicle: Klucel (hydroxypropylcellulose) (HPC), higher = longer survival): 94 % of control | T/C (endpoint: median survival time, dose: 1.25 mg/kg/injection, schedule: Q01DX009 (ip), vehicle: saline with Tween-80, higher = longer survival): 109 % of control | T/C (endpoint: median survival time, dose: 1.5 mg/kg/injection, schedule: Q01DX009 (ip), vehicle: Klucel (hydroxypropylcellulose) (HPC), higher = longer survival): 86 % of control | T/C (endpoint: median survival time, dose: 2.5 mg/kg/injection, schedule: Q01DX009 (ip), vehicle: saline with Tween-80, higher = longer survival): 86 % of control | T/C (endpoint: median survival time, dose: 3.0 mg/kg/injection, schedule: Q01DX009 (ip), vehicle: Klucel (hydroxypropylcellulose) (HPC), higher = longer survival): 101 % of control | T/C (endpoint: median survival time, dose: 6.0 mg/kg/injection, schedule: Q01DX009 (ip), vehicle: Klucel (hydroxypropylcellulose) (HPC), higher = longer survival): 100 % of control | T/C (endpoint: median survival time, dose: 8.0 mg/kg/injection, schedule: Q01DX009 (ip), vehicle: saline with Tween-80, higher = longer survival): 114 % of control | T/C (endpoint: median survival time, dose: 12.0 mg/kg/injection, schedule: Q01DX009 (ip), vehicle: saline with Tween-80, higher = longer survival): 112 % of control | T/C (endpoint: median survival time, dose: 15.0 mg/kg/injection, schedule: Q04DX003 (ip), vehicle: saline with Tween-80, higher = longer survival): 106 % of control | T/C (endpoint: median survival time, dose: 20.0 mg/kg/injection, schedule: Q01DX001 (ip), vehicle: saline with Tween-80, higher = longer survival): 123 % of control | T/C (endpoint: median survival time, dose: 20.0 mg/kg/injection, schedule: Q04DX003 (ip), vehicle: saline with Tween-80, higher = longer survival): 112 % of control | T/C (endpoint: median survival time, dose: 30.0 mg/kg/injection, schedule: Q01DX001 (ip), vehicle: saline with Tween-80, higher = longer survival): 112 % of control | T/C (endpoint: median survival time, dose: 30.0 mg/kg/injection, schedule: Q04DX003 (ip), vehicle: saline with Tween-80, higher = longer survival): 115 % of control | T/C (endpoint: median survival time, dose: 45.0 mg/kg/injection, schedule: Q01DX001 (ip), vehicle: saline with Tween-80, higher = longer survival): 119 % of control

O=NN(CCCl)C(=O)Nc1ccc(Br)cc1
T/C (endpoint: median survival time, dose: 1.25 mg/kg/injection, schedule: Q01DX009 (ip), vehicle: Klucel (hydroxypropylcellulose) (HPC), higher = longer survival): 97 % of control | T/C (endpoint: median survival time, dose: 2.5 mg/kg/injection, schedule: Q01DX009 (ip), vehicle: Klucel (hydroxypropylcellulose) (HPC), higher = longer survival): 101 % of control | T/C (endpoint: median survival time, dose: 5.0 mg/kg/injection, schedule: Q01DX009 (ip), vehicle: Klucel (hydroxypropylcellulose) (HPC), higher = longer survival): 88 % of control | T/C (endpoint: median survival time, dose: 9.4 mg/kg/injection, schedule: Q01DX009 (ip), vehicle: Klucel (hydroxypropylcellulose) (HPC), higher = longer survival): 108 % of control | T/C (endpoint: median survival time, dose: 10.0 mg/kg/injection, schedule: Q01DX009 (ip), vehicle: Klucel (hydroxypropylcellulose) (HPC), higher = longer survival): 102 % of control

CCO/C=C1\SC(=S)N(c2cccc(OC)c2)C1=O
T/C (endpoint: median survival time, dose: 50.0 mg/kg/injection, schedule: Q01DX001 (ip), vehicle: Klucel (hydroxypropylcellulose) (HPC), higher = longer survival): 101 % of control | T/C (endpoint: median survival time, dose: 100.0 mg/kg/injection, schedule: Q01DX001 (ip), vehicle: Klucel (hydroxypropylcellulose) (HPC), higher = longer survival): 104 % of control | T/C (endpoint: median survival time, dose: 200.0 mg/kg/injection, schedule: Q01DX001 (ip), vehicle: Klucel (hydroxypropylcellulose) (HPC), higher = longer survival): 102 % of control | T/C (endpoint: median survival time, dose: 400.0 mg/kg/injection, schedule: Q01DX001 (ip), vehicle: Klucel (hydroxypropylcellulose) (HPC), higher = longer survival): 101 % of control

CC1OC(O[C@@H]2C=C3CC[C@@H]4[C@H](CC[C@]5(C)[C@@H](c6ccc(=O)oc6)CC[C@]45O)[C@@]3(C)CC2)C(O)C(OC2OC(CO)C(O)C(O)C2O)C1O (some centres not stated)
T/C (endpoint: mean tumor weight, dose: 1.2 mg/kg/injection, schedule: Q01DX011 (ip), vehicle: carboxymethylcellulose (CMC), higher = larger tumour): 106 % of control | T/C (endpoint: mean tumor weight, dose: 2.5 mg/kg/injection, schedule: Q01DX011 (ip), vehicle: carboxymethylcellulose (CMC), higher = larger tumour): 102 % of control | T/C (endpoint: mean tumor weight, dose: 5.0 mg/kg/injection, schedule: Q01DX011 (ip), vehicle: carboxymethylcellulose (CMC), higher = larger tumour): 80 % of control
